Here are results for 42 compounds from patent US11098062B2, “Monocyclic and bicyclic ring system substituted carbanucleoside analogues for use as PRMT5 inhibitors” (Janssen Pharmaceutica NV, priority 2016, dated 2021).

This assay concerns the target T1, PRMT5-MEP50 enzyme (Homo sapiens, UniProt O14744).
T1 construct: One virus expresses full length human PRMT5 with Flag-tag at N-terminus; Flag (N); purchased Charles River (Argenta); host or cells: insect cells (Sf9), baculovirus co-infection
The assay is described as follows: In vitro assay 1b: PRMT5-MEP50 high throughput mass spectrometer assay (SAH formation), 1.25 nM enzyme. Type of assay: biochemical. The note with it: 1.25 nM enzyme, 1 μM SAM, 0.3 μM H2A, 30° C., 120 min; averaged values; read-out: pIC50 Assay 1b (converted). The text has this:
Experimental Procedures In Vitro Assay (Assay 1a and 1b)
PRMT5-MEP50 enzyme was purchased from Charles River (Argenta). The enzyme complex was produced in insect cells (Sf9) infected simultaneously with two baculoviruses. One virus expresses full length human PRMT5 with Flag-tag at N-terminus, the second virus expresses full length MEP50 with His6-TEV cleavage at N-terminus. The protein was affinity purified using anti-Flag (M2) beads eluted with 3×FLAG peptide, followed by His-Select eluted with 0.5M imidazole. Eluted protein was then dialysed against tris-buffered saline (TBS) (pH 8.0) containing 20% glycerol and 3 mM dithiothreitol (DTT).
Full-length untagged human recombinant histone H2A (residues 1-130, Genbank Accession #NM_021052, MW=14.1 kDa) expressed in E. coli was purchased from Reaction Biology Corporation, Cat #HMT-11-146. Reagents used for making reaction buffer or stopping reaction were purchased including Tris base (Sigma Cat #T-1503), NaCl (Sigma Cat #RGF-3270), MgCl2 (Sigma Cat #M0250), DTT (Invitrogen Cat #15508-013) and Formic Acid (Riedel deHaen, Cat #33015)
PRMT5 catalyzes the sequential methylations of the terminal nitrogen atoms on the guanidine groups of arginine residues within proteins using co-substrate S-adenosyl-L-methionine (AdoMet, SAM), forming mono-methyl (MMA), syrmmetric-dimethyl arginine (sDMA) and S-adenosyl-L-homocysteine (AdoHcy, SAH). The enzyme activity was determined by following the product SAH formation using high throughput mass spectrometry (Agilent Rapidfire 300 System coupled to a Sciex 4000 series QTrap® triple-quad MS/MS). The reaction buffer was 20 mM Tris-HCl, pH 8.5, 50 mM NaCl, 5 mM MgCl2 and 1 mM DTT. The reaction activity was stopped using 1% formic acid (final concentration).
The IC50 Studies were performed using eleven point dosing series made for each compound by serially diluted 1:2 in dimethyl sulfoxide (DMSO), with point 12 being a DMSO control. Compounds were first spotted to plates, and followed by addition of 2 μM SAM and 0.6 μM H2A (histone H2A) solution mixture. The same volume of enzyme solution was added to initiate the enzymatic reactions. The final concentrations of the reaction are at 1 μM SAM, 0.3 μM H2A and 10 nM enzyme (assay 1a) or or 1.25 nM enzyme (assay 1b). The reaction was incubated at 30° C. for 60 minutes (min) when 10 nM enzyme was used and for 120 min when 1.25 nM enzyme was used. Subsequently, the reaction was quenched by addition of formic acid to a final concentration of 1%. The inhibitions of SAH formation in the presence of compounds were calculated as a percentage of the control relative to the uninhibited reaction as a function of inhibitor concentration. The data were fit as follows: Y=Bottom+(Top−Bottom)/(1+10^((log IC50−X)*h))
where IC50 is the inhibitor concentration (same unit as X) at 50% inhibition and h is the Hill slope. Y is percent of inhibition, X is log of compound concentration. Bottom and Top are the plateaus in same units as Y.

T1 sequence (O14744 whole entry): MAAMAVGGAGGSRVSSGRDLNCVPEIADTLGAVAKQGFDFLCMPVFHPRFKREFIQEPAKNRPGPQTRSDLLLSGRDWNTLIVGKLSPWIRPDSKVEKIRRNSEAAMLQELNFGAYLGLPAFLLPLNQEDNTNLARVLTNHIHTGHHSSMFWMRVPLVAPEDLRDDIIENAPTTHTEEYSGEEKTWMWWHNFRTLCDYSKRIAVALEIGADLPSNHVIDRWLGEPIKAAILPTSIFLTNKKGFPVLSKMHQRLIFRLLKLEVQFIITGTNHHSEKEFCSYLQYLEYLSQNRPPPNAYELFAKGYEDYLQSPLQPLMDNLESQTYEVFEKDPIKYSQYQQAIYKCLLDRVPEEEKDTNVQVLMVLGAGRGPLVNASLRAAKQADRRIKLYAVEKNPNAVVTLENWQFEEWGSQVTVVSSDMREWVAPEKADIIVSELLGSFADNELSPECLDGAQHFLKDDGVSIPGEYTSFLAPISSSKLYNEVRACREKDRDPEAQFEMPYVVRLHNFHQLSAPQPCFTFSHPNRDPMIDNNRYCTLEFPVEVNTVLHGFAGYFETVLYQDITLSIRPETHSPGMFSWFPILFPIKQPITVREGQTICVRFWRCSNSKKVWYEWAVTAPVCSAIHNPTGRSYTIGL
T1 sequence (Q9BQA1 whole entry partner): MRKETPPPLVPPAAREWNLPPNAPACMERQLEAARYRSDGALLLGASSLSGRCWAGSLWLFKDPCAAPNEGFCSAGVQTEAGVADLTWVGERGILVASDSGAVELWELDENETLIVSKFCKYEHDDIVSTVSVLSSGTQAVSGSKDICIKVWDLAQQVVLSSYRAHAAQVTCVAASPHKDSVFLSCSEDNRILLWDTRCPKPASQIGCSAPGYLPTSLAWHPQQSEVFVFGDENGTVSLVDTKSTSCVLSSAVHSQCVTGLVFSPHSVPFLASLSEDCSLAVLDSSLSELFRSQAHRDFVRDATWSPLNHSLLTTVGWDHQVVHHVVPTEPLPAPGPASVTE

With `Nc1cccc(/C=C/[C@H]2C[C@@H](n3ccc4c(N)ncnc43)[C@H](O)[C@@H]2O)n1` [Compound 37], the IC50 was 794 nM.
The figure for `Nc1ccc(CCC[C@H]2C[C@@H](n3ccc4c(N)ncnc43)[C@H](O)[C@@H]2O)cn1` [Compound 53] is 2 nM; for `Nc1ncnc2c1ccn2[C@@H]1C[C@H](CCCc2ccc3cccnc3c2)[C@@H](O)[C@H]1O` [Compound 47] it is 1580 nM; for `Nc1cc(CCC[C@H]2C[C@@H](n3ccc4c(N)ncnc43)[C@H](O)[C@@H]2O)ccn1` [Compound 45] it is 501 nM.
For the compound `Nc1ncnc2c1ccn2[C@@H]1C[C@H](CCCCc2ccncc2)[C@@H](O)[C@H]1O` [Compound 63], the IC50 is 2000 nM.
For `Nc1ncnc2c1ccn2[C@@H]1C[C@H](CCc2cn[nH]c2)[C@@H](O)[C@H]1O` [Compound 68] the value was 1260 nM; for `Nc1ncnc2c1ccn2[C@@H]1C[C@H](CCCc2cnc3ccccc3c2)[C@@H](O)[C@H]1O` [Compound 43], 251 nM; for `Nc1ncnc2c1ccn2[C@@H]1C[C@H](CCCCc2cnc3c(N)cccc3c2)[C@@H](O)[C@H]1O` [Compound 59], 2000 nM.
As to `Nc1cc2cccc(CCCC[C@H]3C[C@@H](n4ccc5c(N)ncnc54)[C@H](O)[C@@H]3O)c2cn1` [Compound 54], the IC50 was 100 nM.
Turning to `Nc1ncnc2c1ccn2[C@@H]1C[C@H](CCc2cnc3c(c2)OCCN3)[C@@H](O)[C@H]1O` [Compound 72], the IC50 is 12.6 nM.
The figure for `Nc1ncnc2c1ccn2[C@@H]1C[C@H](CCCCc2cccc3ccncc23)[C@@H](O)[C@H]1O` [Compound 66] is 39.8 nM.
The figure for `Nc1ncnc2c1ccn2[C@@H]1C[C@H](CCc2cccnc2)[C@@H](O)[C@H]1O` [Compound 67] is 501 nM; for `Nc1ncnc2c1ccn2[C@@H]1C[C@H](CCCCc2ccc3cccnc3c2)[C@@H](O)[C@H]1O` [Compound 60] it is 251 nM.
The figure for `CC(=O)Nc1cn2ccc(CC[C@H]3C[C@@H](n4ccc5c(N)ncnc54)[C@H](O)[C@@H]3O)cc2n1` [Compound 31] is 63.1 nM.
For the compound `Nc1ncnc2c1ccn2[C@@H]1C[C@H](CCc2cnc3c(c2)CCN3)[C@@H](O)[C@H]1O` [Compound 73], the IC50 was 25.1 nM.
For `Nc1ncnc2c1ccn2[C@@H]1C[C@H](Cn2ccc3ccncc32)[C@@H](O)[C@H]1O` [Compound 75] the value was 251 nM; for `Cn1cncc1CC[C@H]1C[C@@H](n2ccc3c(N)ncnc32)[C@H](O)[C@@H]1O` [Compound 38], 794 nM; for `Nc1ncnc2c1ccn2[C@@H]1C[C@H](CCCc2ccncc2)[C@@H](O)[C@H]1O` [Compound 49], > 2510 nM.
In the case of `Nc1ccc2cccc(CCC[C@H]3C[C@@H](n4ccc5c(N)ncnc54)[C@H](O)[C@@H]3O)c2n1` [Compound 50], the IC50 was 31.6 nM.
As for `Nc1ncnc2c1ccn2[C@@H]1C[C@H](CCCCc2ccn3ccnc3c2)[C@@H](O)[C@H]1O` [Compound 61], the IC50 is 7.94 nM.
In the case of `Nc1ncnc2c1ccn2[C@@H]1C[C@H](CCCc2cccc3ccncc23)[C@@H](O)[C@H]1O` [Compound 51], the IC50 was 316 nM.
On to `Nc1ncnc2c1ccn2[C@@H]1C[C@H](CCC2=CC3=NC(=O)CN3C=C2)[C@@H](O)[C@H]1O` [Compound 71], for which the IC50 was 100 nM.
Turning to `Nc1cc(/C=C/[C@H]2C[C@@H](n3ccc4c(N)ncnc43)[C@H](O)[C@@H]2O)ccn1` [Compound 36], the IC50 is 2000 nM.
In the case of `Cc1cn2ccc(OC[C@H]3C[C@@H](n4ccc5c(N)ncnc54)[C@H](O)[C@@H]3O)cc2n1` [Compound 33], the IC50 is 5.01 nM.
For `Nc1ncnc2c1ccn2[C@@H]1C[C@H](CCc2cnc(Nc3ccc(Cl)cc3)nc2)[C@@H](O)[C@H]1O` [Compound 70] the value was 501 nM; for `Nc1ncnc2c1ccn2[C@@H]1C[C@H](CCCc2cnc3c(N)cccc3c2)[C@@H](O)[C@H]1O` [Compound 44], 1580 nM; for `Nc1cccc(CCCC[C@H]2C[C@@H](n3ccc4c(N)ncnc43)[C@H](O)[C@@H]2O)n1` [Compound 55], 0.398 nM.
The figure for `Nc1ncnc2c1ccn2[C@@H]1C[C@H](CCc2ccn3cc(C(F)(F)F)nc3c2)[C@@H](O)[C@H]1O` [Compound 23] is 39.8 nM; for `Nc1ncnc2c1ccn2[C@@H]1C[C@H](CCCCc2cccc3cccnc23)[C@@H](O)[C@H]1O` [Compound 58] it is > 2510 nM; for `Nc1ncnc2c1ccn2[C@@H]1C[C@H](CCCc2ccn3ccnc3c2)[C@@H](O)[C@H]1O` [Compound 48] it is 31.6 nM.
For `Nc1cc2cccc(CCC[C@H]3C[C@@H](n4ccc5c(N)ncnc54)[C@H](O)[C@@H]3O)c2cn1` [Compound 41] the value was 398 nM.
As to `Nc1cc(CCCC[C@H]2C[C@@H](n3ccc4c(N)ncnc43)[C@H](O)[C@@H]2O)ccn1` [Compound 57], the IC50 was 79.4 nM.
For `Nc1ccc(CCCC[C@H]2C[C@@H](n3ccc4c(N)ncnc43)[C@H](O)[C@@H]2O)cn1` [Compound 56] the value was 7.94 nM.
The figure for `Nc1ncnc2c1ccn2[C@@H]1C[C@H](CCCc2cccc3cccnc23)[C@@H](O)[C@H]1O` [Compound 52] is > 2510 nM.
For `Nc1ncc(CC[C@H]2C[C@@H](n3ccc4c(N)ncnc43)[C@H](O)[C@@H]2O)cn1` [Compound 69] the value was 2000 nM; for `Nc1cccc(CCC[C@H]2C[C@@H](n3ccc4c(N)ncnc43)[C@H](O)[C@@H]2O)n1` [Compound 40], 79.4 nM.
With `Nc1ncnc2c1ccn2[C@@H]1C[C@H](CCCc2cccnc2)[C@@H](O)[C@H]1O` [Compound 42], the IC50 was 316 nM.
The figure for `CC(c1cncn1C)[C@H]1C[C@@H](n2ccc3c(N)ncnc32)[C@H](O)[C@@H]1O` (stereo partly drawn) [Compound 39] is 2000 nM; for `Nc1ncnc2c1ccn2[C@@H]1C[C@H](CCCCc2cnc3ccccc3c2)[C@@H](O)[C@H]1O` [Compound 62] it is 794 nM; for `Nc1ccc2cccc(CCCC[C@H]3C[C@@H](n4ccc5c(N)ncnc54)[C@H](O)[C@@H]3O)c2n1` [Compound 65] it is 10 nM.
With `Nc1ncnc2c1ccn2[C@@H]1C[C@H](CCCc2ccccn2)[C@@H](O)[C@H]1O` [Compound 46], the IC50 is > 2510 nM.
Turning to `Nc1ncnc2c1ccn2[C@@H]1C[C@H](CCCCc2ccccn2)[C@@H](O)[C@H]1O` [Compound 64], the IC50 was 100 nM.
